{"source": "patent US20210213010A1", "about": "“TLR7/8 AGONISTS AND LIPOSOME COMPOSITIONS” (Torque Therapeutics, Inc., priority 2018, published 2021)", "key": {"[1]": {"test": "Cryo-TEM of remote loaded liposomes (intraliposomal precipitation)", "type": "physicochemical", "conditions": "remote loaded liposomes, Example 75", "method": "CryoTEM samples of 3 μL of liposome solution was placed on a lacy carbon 300 mesh copper TEM grid, blotted and plunge frozen in liquid ethane using a FEI Vitrobot Mark IV. Samples were imaged using a FEI Tecnai G2 20 TWIN transmission electron microscope operated at 200 keV in low dose mode with a FEI High-Sensitive (HS) 4 k×4 k Eagle camera."}, "[2]": {"test_system": "RAW Blue cells", "test": "Potency of TLR7 agonist compound library in RAW Blue TLR reporter cells", "type": "cell-based", "conditions": "fold more potent", "method": "A general synthesis scheme is shown in FIG. 1A according to the procedure by Wu et al. Immunotherapeutic activity of a conjugate of a Toll-like receptor 7 ligand. Proc. Natl. Acad. Sci. 104, 3990-3995 (2007), with some modifications and in good yields. Final derivatization using standard amide bond formation or reductive amination conditions, gave the desired library of 22 compounds divided into two sets (set 1, 1a-1j and set 2, 2a-2j). Next it was evaluated if the synthesized compounds had retained their activity upon derivatization. As benchmarks, the known TLR agonists Gardiquimod (Gdq, TLR7) and Resiquimod (R848, TLR7/8) were used."}, "[3]": {"test_system": "B16-F10 tumor", "test": "B16-F10 tumor model with adoptive cell transfer of PMEL cells (Example 80)", "type": "in vivo, mouse", "conditions": "for Weight of tumor bearing mice: versus HBSS, PMEL alone and PMEL loaded with Gdq liposomes", "method": "Spleens and lymphnodes were harvested from PMEL mice (B6. Cg-Thy1^a/Cy Tg(TcraTcrb)8Rest/J, Jackson Labs) and CD8 T cells purified by Mylteni MACS T cell separation kit. PMEL cells were stimulated and expanded on anti-CD3/CD28 coated plates with mouse IL2/IL7/IL21 cytokines, harvested and loaded with liposomes for evaluation in vivo. PMEL cells at 50×10^6/mL were incubated with liposomes at 10 mM lipid concentration for 60 minutes at 37 C, washed twice and formulated in HBSS prior to injection into the mice. In vivo study details show below. Briefly, 100 ul of 0.5×10^6 B16-F10 cells formulated in HBSS were injected SubQ (SQ) or intra-dermal (ID) and grown for 9 days prior to treatment. 1 day prior to treatment, 4 mg/mouse of cyclophosphamide (CPX) was injected intraperitoneal (IP) with 200 ul at 20 mg/mL in phosphate buffered saline (PBS). There were 10 mice used per group and all treatments were injected intravenous (IV) via tail vein injection, the groups were as follows: • HBSS alone (single dose) • 20×10^6 PMEL cells/mouse (single dose) • 20×10^6 PMEL cells/mouse backpacked with 2.5 antiCD45 Ab/liposome, 10% DOTAP, 35% cholersterol, 0.6% DSPE-PEG, POPC, pH gradient loaded as previously described with Gardiquimod (˜200 nmol Gardiquimod/mouse, single dose) • 20×10^6 PMEL cells/mouse followed by 4 mg/kg Gardiquimod systemically on day 0 (treatment day, day 6, day 13, day 25 • 20×10^6 PMEL cells/mouse followed by 2 mg/kg KRJ2-110 systemically on day 0 (treatment day), day 6, day 13, day 25"}, "[4]": {"test": "Cytokine/chemokine release kinetics in blood of non-tumor bearing B6D2F1/J mice (Luminex)", "type": "in vivo, mouse", "conditions": "single dose; 4 mg/kg Gdq or 2 mg/kg KRJ2-110 systemic, or loaded PMEL cells; 0-24 hr", "method": "Spleens and lymphnodes were harvested from PMEL mice (B6. Cg-Thy1^a/Cy Tg(TcraTcrb)8Rest/J, Jackson Labs) and CD8 T cells purified by Mylteni MACS T cell separation kit. PMEL cells were stimulated and expanded on anti-CD3/CD28 coated plates with mouse IL2/IL7/IL21 cytokines and harvested for use. The cytokine/chemokine release profile in non-tumor bearing B6D2F1/J mice (Jackson Labs) was evaluated by injecting: • 20×10^6 PMEL cells alone, 20×10^6 PMEL cells loaded with 2.5 ant-CD45 Ab/liposome, 10% DOTAP, 35% cholesterol, 0.6% DSPE-PEG, POPC liposomes Gardiquimod pH gradient loaded as previously described (˜200 nmol gardiquimod, single dose) • 4 mg/kg Gdq systemic (no PMEL, single dose) • 2 mg/kg KRJ2-110 systemic (no PMEL, single dose)\nBlood was drawn at 0, 0.25, 0.5, 1, 2, 4, 6, 10 and 24 hr and plasma was recovered for cytokine/chemokine quantitation using a Luminex kit. […] IP10 and TNFa are commonly used biomarkers for TLR7 agonists in human studies indicating these may be useful biomarkers in clinical studies for T cells loaded with TLR7 agonists."}, "[5]": {"test_system": "B16-F10 tumor", "test": "In vivo immune profiling by flow cytometry in B16-F10 tumor bearing mice (Example 87)", "set-up": "species or system mouse", "method": "Spleens and lymphnodes were harvested from PMEL mice (B6. Cg-Thy1^a/Cy Tg(TcraTcrb)8Rest/J, Jackson Labs) and CD8 T cells purified by Mylteni MACS T cell separation kit. PMEL cells were stimulated and expanded on anti-CD3/CD28 coated plates with mouse IL2/IL7/IL21 cytokines, harvested and loaded with liposomes for evaluation in vivo. PMEL cells at 50×10^6/mL were incubated with liposomes at 10 mM lipid concentration for 60 minutes at 37 C, washed twice and formulated in HBSS prior to injection into the mice. Briefly, 100 ul of 1×10^6 B16-F10 cells formulated in HBSS were injected SubQ (SQ) and grown for 10 days prior to treatment. 1 day prior to treatment, 4 mg/mouse of cyclophosphamide (CPX) was injected intraperitoneal (IP) with 200 ul at 20 mg/mL in phosphate buffered saline (PBS). There were 10 mice used per group and all treatments were injected intravenous (IV) via tail vein injection, the groups were as follows: • HBSS alone (single dose) • 20×10^6 PMEL cells/mouse (single dose) • 20×10^6 PMEL cells/mouse backpacked with 1.5% Arg3-Chol, 10% DSTAP, 35% cholesterol, 0.5% DSPE-PEG, DSPC, pH gradient loaded as previously described with KRJ2-110 (single dose) • 20×10^6 PMEL cells/mouse followed by 2 mg/kg KRJ2-110 systemically on day 0 (small molecule delivered 1 hr after cell dose)\nBlood was sampled at 24 hr, 4 days and 7 days for plasma isolation and cytokine/chemokine characterization by Luminex. Tissues and organs were harvested on day 4 and 7 for analysis by flow cytometry and Luminex."}, "[6]": {"test_system": "RAW-Blue cells", "test": "NF-κB induction in RAW-Blue reporter cells (RAW 264.7 macrophages, SEAP)", "type": "cell-based", "conditions": "RAW-Blue; sigmoidal 4PL fitting, 24 h", "in_short": "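RAW 264.7 macrophages with NF-κB-inducible SEAP, 100×10^3 cells/well, exposed to compound dilutions (from DMSO stocks in PBS) for 24 h at 37 °C, triplicate. Supernatant SEAP read with QUANTI-Blue at 640 nm after 3–6 h, normalized to DMSO blank; EC50 from 4PL fits.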"}, "[7]": {"conditions": "amine in conjugation with the aromatic system; cited from earlier work"}, "[8]": {"test": "Remote loading efficiency of small molecules into liposomes (PD-10 size exclusion, HPLC)", "type": "physicochemical", "conditions": "for Remote loading efficiency 1 h (%): drug/lipid ratio 0.10, 1 h; for Remote loading efficiency 3 h (%): drug/lipid ratio 0.10, 3 h", "in_short": "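A lyophilized small-molecule powder (modified TLR agonist) was combined with liposome formulation at the desired drug/lipid ratio and stirred at elevated temperature. At 1 h and 3 h, 100 μL of mixture plus 900 μL buffer (25 mM HEPES, 10 vol % sucrose, pH 7.4) went onto a PD-10 size exclusion column. Ten 1 mL fractions were collected, and HPLC quantified compound in the liposome fractions as a percentage of the amount applied.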"}, "[9]": {"test_system": "whole human blood", "test": "IL-6 cytokine expression in stimulated whole human blood (ELISA)", "type": "cell-based", "method": "(§1) This example describes the general procedure used to assess the level of cytokine IL-6 and IL-12p40 expressions upon stimuli of whole human blood with small molecules or small molecules in liposomal formulations F1 and F2. 10 mM DMSO solutions of the small molecules were diluted in RPMI media (RPMI-1640, Sigma Aldrich) with 1% penicillin/streptomycin (p/s). […], of each dilution was transferred to Nunc™ 96-Well Polystyrene Conical Bottom MicroWell™ Plates in duplicates. Blood was drawn from two human donors, diluted in RPMI with 1% p/s and added to each well to reach final concentrations of 10 μM, 1 μM, and 0.1 μM of the small molecules. The plates were incubated at 37° C. in a cell incubator for 24h. The plates were then spun down in a plate centrifuge with 3200 revolutions per minute (rpm) for 10 min before 50 uL of the supernatant was transferred to new 96-well plates. The supernatant samples were subsequently stored at −80° C. until the day of cytokine measurements.\n(§2) The level of cytokine expression was measured using either an IL-6 ELISA Kit (RnDSystems, cat #DY206) for IL-6, or an IL-12p40 ELISA Kit (RnDSystems, cat #DY1240) according to the manufacturer's protocols. This general procedure was used to generate the examples 24-33."}, "[10]": {"test_system": "whole human blood", "test": "IL-12p40 cytokine expression in stimulated whole human blood (ELISA)", "type": "cell-based", "conditions": "drug/lipid ratio 0.1", "method": "as §1, §2"}}, "note": "Entries after “also recorded” stand apart in the source; their conditions may differ."}
{"molecule": "COCCOc1nc(N)c2nc(O)n(Cc3ccc(CN)cc3)c2n1", "note": "[KRJ2-110, 6-amino-9-(4-(aminomethyl)benzyl)-2-(2-methoxyethoxy)-9H-purin-8-ol]", "values": [{"measurement": "Crystallization within liposomes (Cryo-TEM)", "setting": "[1]", "result": "crystallizes inside the liposomes"}, {"measurement": "In vitro potency in a RAW cell assay relative to Gardiquimod", "setting": "[2]", "result": "~10", "unit": "×"}, {"measurement": "B16-F10 tumor growth after adoptive cell transfer", "setting": "[3]; PMEL cells plus 2 mg/kg KRJ2-110 or 4 mg/kg Gardiquimod systemically, or liposome loaded PMEL", "result": "more efficacious"}, {"measurement": "Weight of tumor bearing mice", "setting": "[3]", "result": "more substantial weight loss"}, {"measurement": "Proinflammatory cytokines such as IFNg, IL12 in blood", "setting": "[4]", "result": "significant increase in proinflammatory cytokines"}, {"measurement": "Activation of PMEL T cells in LN", "setting": "[5]; 4 and 7 days after ACT", "result": "Increases activation of PMEL T cells in LN"}, {"measurement": "Exhaustion of PMEL cells (PD1+/LAG3+)", "setting": "[5]; 4 and 7 days after ACT", "result": "Slightly increases exhaustion"}, {"measurement": "MHCII expression in the tumor", "setting": "[5]; 4 and 7 days after ACT", "result": "Increases MHCII expression in the tumor"}, {"measurement": "Monocytic and Granulocytic MDSC density in the tumor", "setting": "[5]; 7 days after ACT", "result": "Does not markedly affect MDSC"}, {"measurement": "Abundance of cDC1 and pDC in the tumor", "setting": "[5]; after ACT", "result": "Transiently increases the abundance of cDC1 and pDC"}, {"measurement": "Proliferation of PMEL T cells (Ki67)", "setting": "[5]; blood, spleen and tumor, 4 days after ACT", "result": "Virtually no effect on PMEL T cell proliferation"}]}
{"molecule": "CCOCc1nc2c(N)nc3ccccc3c2n1CC(C)(C)O", "note": "[R848, Resiquimod, reference compound]", "values": [{"measurement": "EC50", "setting": "[6]", "result": 150, "unit": "nM"}, {"measurement": "pKa of the conjugate acid", "setting": "[7]", "result": "approximately 4"}]}
{"molecule": "CCNCc1nc2c(N)nc3ccccc3c2n1CC(C)(C)O", "note": "[Gardiquimod, reference compound]", "values": [{"measurement": "Remote loading efficiency 1 h (%)", "setting": "[8]; formulation F1, HEPES", "result": 89, "unit": "%"}, {"measurement": "Remote loading efficiency 3 h (%)", "setting": "[8]; formulation F1, HEPES", "result": 92, "unit": "%"}, {"measurement": "Remote loading efficiency 1 h (%)", "setting": "[8]; formulation F2, HEPES", "result": 89, "unit": "%"}, {"measurement": "Remote loading efficiency 3 h (%)", "setting": "[8]; formulation F2, HEPES", "result": 92, "unit": "%"}, {"measurement": "Expression of IL-6 upon stimulation of whole human blood", "setting": "[9]; free small molecule, 10, 1, 0.1 μM, 24 h, two donors", "result": "induced expression of IL-6 at 10 μM in donor 2"}, {"measurement": "Expression of IL-6 upon stimulation of whole human blood", "setting": "[9]; remote loaded in formulation F1, HEPES, drug/lipid ratio 0.1", "result": "No induction of IL-6 expression"}, {"measurement": "Expression of IL-6 upon stimulation of whole human blood", "setting": "[9]; remote loaded in formulation F2, HEPES, drug/lipid ratio 0.1", "result": "capable of inducing expression of IL-6 at 10 μM; also recorded: capable of inducing expression of IL-6 in both donors; also recorded: the most potent"}, {"measurement": "Expression of IL-12p40 upon stimulation of whole human blood", "setting": "[10]; remote loaded in formulation F1, HEPES", "result": "none of the small molecules Gardiquimod, MK087, MK088, and MK089 were capable of inducing expression of IL-12p40"}, {"measurement": "Expression of IL-12p40 upon stimulation of whole human blood", "setting": "[10]; remote loaded in formulation F2, HEPES", "result": "capable of inducing expression of IL-12p40 in one donor at 10 μM"}, {"measurement": "EC50", "setting": "[6]", "result": 1670, "unit": "nM"}, {"measurement": "Weight of tumor bearing mice", "setting": "[3]", "result": "more substantial weight loss"}, {"measurement": "Proinflammatory cytokines such as IFNg, IL12 in blood", "setting": "[4]", "result": "significant increase in proinflammatory cytokines"}]}
